One assay deals with MDA-MB-231 tumors. Description: MDA-MB-231 tumor-bearing athymic mouse model, intravenous treatment. To be noted: 1 mg/kg DOX i.v. every 5 days. The format is in vivo, NCR nu/nu mice. How it is done:
All experiments were conducted in accordance with Case Western Reserve University's Institutional Animal Care and Use Committee. Female NCR nu/nu mice (6 weeks old) were injected subcutaneously into the right flank with 2 × 10^6 MDA-MB-231 cells suspended in 100 µL of media and Matrigel (Corning) at a 1:1 ratio. When tumors reached 100-200 mm^3, a dosage of 1.0 mg/kg body weight DOX was injected intravenously (this dosage corresponds to 1.0 - 2.0 mg PVX depending on batches). Groups of 4 animals each were treated with PEG-PVX-DOX, free DOX, or PBS. The dosage was normalized to the DOX content. Treatments were performed every 5 days, and a total of 5 treatments was given.
Tumors were measured daily and total volume was calculated using the formula: v = (l × w^2)/2. Mice were euthanized following 25 days of treatment.

For a further assay, the system named is A2780 cells. Kind of assay: tracking of free DOX and PVX-DOX in cells (fluorescence microscopy). The following applies: 1.5 µM DOX, at 48 h. The format is cell-based, human. How it is done:
A2780 cells were grown to confluency and removed with 0.05% (w/v) trypsin-EDTA. Cells were seeded at 1 × 10^4 cells/500 µL/well on coverslips in untreated 24-well plates and grown overnight at 37°C, 5% CO2. The next day, cells were washed 3 times and incubated with free DOX or PVX-DOX (1.5 µM DOX) for 2, 4, 12, 24, or 48 h. Following incubation, cells were washed 3 times and fixed in DPBS (Corning) containing 5% (v/v) paraformaldehyde (Electron Microscopy Sciences) and 0.3% (v/v) glutaraldehyde (Polysciences) for 10 min at room temperature. Coverslips were mounted using Fluoroshield (Sigma). Slides were imaged on a Zeiss Axio Observer Z1 motorized FL inverted microscope. Fluorescence intensity was analysed as follows using ImageJ 1.47d. All images were identically processed prior to fluorescence intensity measurement. Nuclei were selected and analyzed for fluorescence intensity using the measure feature of ImageJ. For each sample, a minimum of 3 images was analyzed and at least 4 cells were analyzed per image.

The test system of assay [1] is A2780 human ovarian cancer. Kind of assay: MTT cytotoxicity evaluation, A2780. The format is cell-based. Here is the method:
(§1) A2780, a gift from Dr. Analisa DiFeo (Case Western Reserve University) were cultured in Dulbecco's modified Eagle's media (DMEM, Life Technologies), supplemented with 10% (v/v) fetal bovine serum (FBS, Atlanta Biologicals) and 1% (v/v) penicillin-streptomycin (penstrep, Life Technologies). HeLa (ATCC) were cultured in minimum essential media (MEM, Life Technologies), supplemented with 10% (v/v) FBS, 1% (v/v) penstrep, and 1% (v/v) L-glutamine (Life Technologies). MDA-MB-231, a gift from Dr. Ruth Keri (Case Western Reserve University), were cultured in Roswell Park Memorial Institute (RPMI, Life Technologies) medium supplemented with 10% (v/v) FBS, 1% (v/v) penstrep, and 1% (v/v) L-glutamine. All cells were maintained at 37°C and 5% CO2.
(§2) Confluent cells were removed with 0.05% (w/v) trypsin-EDTA (Life Technologies), seeded at either 2 × 10^3 cells/100 µL/well (MDA-MB-231 and HeLa) or 5 × 10^3 cells/100 µL/well (A2780) in 96-well plates and grown overnight at 37°C, 5% CO2. The next day, cells were washed 2 times with PBS and incubated with free DOX, PVX-DOX, or PEG-PVX-DOX corresponding to 0, 0.01, 0.05, 0.1, 0.5, 1, 5, or 10 µM (A2780, MDA-MB-231) or 0, 0.1, 0.5, 1, 5, 10, 25, or 50 µM (HeLa) DOX for 24 h, in triplicate. A PVX only control corresponded to the amount of PVX in the highest PVX-DOX sample. Following incubation, cells were washed 2 times to remove unbound DOX or particles. […]

In the next assay the test system is B16F10 melanoma cells. Kind of assay: MTT cell viability assay, B16F10. The format is cell-based, murine. The following applies: Mus musculus, B16-F10, 24 h exposure then 48 h. How it is done:
B16F10 cells (ATCC) were cultured in Dulbecco's modified Eagle's media (DMEM, Life Technologies), supplemented with 10% (v/v) fetal bovine serum (FBS, Atlanta Biologicals) and 1% (v/v) penicillin-streptomycin (penstrep, Life Technologies). Cells were maintained at 37°C, 5% CO2. Confluent cells were removed with 0.05% (w/v) trypsin-EDTA (Life Technologies), seeded at 2 x 10^3 cells/100µL/well in 96-well plates, and grown overnight at 37°C, 5% CO2. The next day, cells were washed 2 times with PBS and incubated with free DOX or PVX-DOX corresponding to 0, 0.01, 0.05, 0.1, 0.5, 1, 5, or 10 µM DOX for 24 h, in triplicate. A PVX only control corresponded to the amount of PVX in the highest PVX-DOX sample. Following incubation, cells were washed 2 times to remove unbound DOX or particles. Fresh medium (100 µL) was added and cells were returned to the […] incubator for 48 h.
Background: Tetrazolium assays rely on reduction of a dye to a coloured formazan, in cell work by metabolically active cells.

Assay [2] concerns MDA-MB-231 human breast cancer. Description: MTT cytotoxicity evaluation, MDA-MB-231. The format is cell-based. To be noted: MDA-MB-231, 24 h exposure then 48 h, MTT assay. How it is done: as §1, §2
Assay [3] relates to HeLa human cervical cancer. Description: MTT cytotoxicity evaluation, HeLa. The format is cell-based. The following applies: 24 h exposure then 48 h, MTT assay. Here is the method:
as §1, §2

Broadly, the IC50 is the concentration at which inhibition is half-maximal. A higher IC50 goes with lower potency.

Turning to `COc1cccc2c1C(=O)c1c(O)c3c(c(O)c1C2=O)C[C@@](O)(C(=O)CO)C[C@@H]3O[C@H]1C[C@H](N)[C@H](O)[C@H](C)O1` [DOX, doxorubicin], the “day post first treatment from which differences to PBS were statistically significant” value in the assay with MDA-MB-231 tumors (p<0.05) is over 22 days. In the assay with MDA-MB-231 tumors (at the end of the treatment, 5 injections), the “tumor volumes smaller than the PBS control” value is given as 2.1 times. In the assay with A2780 cells, the drug-induced apoptosis result is given as “apparent”. Moreover, in assay [1] (A2780, MTT assay), the “cell killing effectiveness relative to PVX-DOX” value worked out at 4 times. Moreover, the IC50 in assay [1] (Homo sapiens, A2780, 24 h exposure then 48 h, MTT assay) came to 0.22 µM; with B16F10 melanoma cells it was 0.28 µM; in assay [2], 0.13 µM; in assay [3], 1.6 µM.

The values are drawn from patent EP3592343B1, “CANCER IMMUNOTHERAPY USING VIRUS PARTICLES” (Case Western Reserve University, priority 2017, dated 2018).
